Source: patent US20130303509A1, “NAMPT INHIBITORS” (AbbVie Inc., priority 2012, published 2013)

Test system: PC3 cells
Test: NAMPT Cell Proliferation Assay
Assay type: cell-based
Settings: Homo sapiens, PC-3, 120 h, 5 days incubation, cell viability by Cell Titer Glo
Summary of the method: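 Seeded at 500 cells/well in RPMI with 10% heat-inactivated FBS and left to attach overnight at 37° C, 5% CO2. Compounds were added as 10-fold dilutions […] for 5 days, then viability was read by CellTiter-Glo. IC50s came from sigmoidal fits of percent inhibition.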

| IC50 | Structure (SMILES) |
| --- | --- |
| 646 nM | O=C(Nc1ccc(O[C@@H]2CCN(C(=O)C3CCOC3)C2)cc1)C1CN(c2ccnnc2)C1 (stereo partly drawn) [Example 461, 1-(pyridazin-4-yl)-N-(4-{[(3R)-1-(tetrahydrofuran-3-ylcarbonyl)pyrrolidin-3-yl]oxy}phenyl)azetidine-3-carboxamide] |
| 0.62 nM | CCC(C)(C)C(=O)N1CCC(c2ccc(NC(=O)C3CN(c4cccnc4)C3)cc2)CC1 [Example 133, N-{4-[1-(2,2-dimethylbutanoyl)piperidin-4-yl]phenyl}-1-(pyridin-3-yl)azetidine-3-carboxamide] |
| 621 nM | CC(C)(C)OC(=O)N1CCC(c2ccc(C(=O)NC3CN(c4cccnn4)C3)cc2)CC1 [Example 314, tert-butyl 4-(4-{[1-(pyridazin-3-yl)azetidin-3-yl]carbamoyl}phenyl)piperidine-1-carboxylate] |
| 7.09 nM | Cc1cnc(C(=O)N2CCC(c3ccc(NC(=O)C4CN(c5cccnn5)C4)cc3)CC2)cn1 [Example 378, N-(4-{1-[(5-methylpyrazin-2-yl)carbonyl]piperidin-4-yl}phenyl)-1-(pyridazin-3-yl)azetidine-3-carboxamide] |
| 6.17 nM | O=C(Nc1ccc(C2CCN(C(=O)CN3CCCC3)CC2)cc1)C1CN(c2cccnc2)C1 [Example 105, 1-(pyridin-3-yl)-N-{4-[1-(pyrrolidin-1-ylacetyl)piperidin-4-yl]phenyl}azetidine-3-carboxamide] |
| 6.9 nM | CC(C)(O)C(=O)N1CCC(Oc2ccc(NC(=O)C3CN(c4cccnc4)C3)cc2)CC1 [Example 31, N-(4-{[1-(2-hydroxy-2-methylpropanoyl)piperidin-4-yl]oxy}phenyl)-1-(pyridin-3-yl)azetidine-3-carboxamide] |
| 4.05 nM | Cc1ccc(C(=O)N2CCC(c3ccc(NC(=O)[C@H]4CCN(c5cccnn5)C4)cc3)CC2)c(C)c1 [Example 672, (3S)-N-{4-[1-(2,4-dimethylbenzoyl)piperidin-4-yl]phenyl}-1-(pyridazin-3-yl)pyrrolidine-3-carboxamide] |
| 60.9 nM | O=C(Nc1ccc(OC2CN(C(=O)C(F)(F)c3ccccc3)C2)cc1)C1CN(c2ccnnc2)C1 [Example 201, N-[4-({1-[difluoro(phenyl)acetyl]azetidin-3-yl}oxy)phenyl]-1-(pyridazin-4-yl)azetidine-3-carboxamide] |
| 4.01 nM | O=C(Nc1ccc(C2CCN(C(=O)c3cccc(F)c3)CC2)cc1)[C@H]1CCN(c2cccnn2)C1 [Example 725, (3S)-N-{4-[1-(3-fluorobenzoyl)piperidin-4-yl]phenyl}-1-(pyridazin-3-yl)pyrrolidine-3-carboxamide] |
| 6170 nM | CC(C)Cn1cc(-c2cc(C(=O)N[C@@H]3CCN(c4cccnn4)C3)cs2)cn1 [Example 623, 5-[1-(2-methylpropyl)-1H-pyrazol-4-yl]-N-[(3R)-1-(pyridazin-3-yl)pyrrolidin-3-yl]thiophene-3-carboxamide] |
| 0.61 nM | O=C(Nc1ccc(C2CCN(C(=O)CC(F)(F)F)CC2)cc1)C1CN(c2cccnc2)C1 [Example 122, 1-(pyridin-3-yl)-N-{4-[1-(3,3,3-trifluoropropanoyl)piperidin-4-yl]phenyl}azetidine-3-carboxamide] |
| 6.94 nM | CSCCC(=O)N1CCC(c2ccc(NC(=O)C3CN(c4cccnn4)C3)cc2)CC1 [Example 337, N-(4-{1-[3-(methylsulfanyl)propanoyl]piperidin-4-yl}phenyl)-1-(pyridazin-3-yl)azetidine-3-carboxamide] |
| 1.33 nM | CC(C)(C)C(=O)N1CCC(c2ccc(NC(=O)C3CN(c4ccnnc4)C3)cc2)CC1 [Example 559, N-{4-[1-(2,2-dimethylpropanoyl)piperidin-4-yl]phenyl}-1-(pyridazin-4-yl)azetidine-3-carboxamide] |
| 0.23 nM | CC(=O)N[C@@H](CC(C)C)C(=O)N1CCC(c2ccc(NC(=O)C3CN(c4cccnc4)C3)cc2)CC1 [Example 120, N-{4-[1-(N-acetyl-L-leucyl)piperidin-4-yl]phenyl}-1-(pyridin-3-yl)azetidine-3-carboxamide] |
| 7.7 nM | O=C(Nc1ccc(C2CCN(C(=O)c3ccccn3)CC2)cc1)C1CN(c2ccnnc2)C1 [Example 543, 1-(pyridazin-4-yl)-N-{4-[1-(pyridin-2-ylcarbonyl)piperidin-4-yl]phenyl}azetidine-3-carboxamide] |
| 65.9 nM | O=C(Nc1ccc(O[C@@H]2CCN(C(=O)c3cccc(Cl)c3)C2)cc1)C1CN(c2ccnnc2)C1 [Example 464, N-(4-{[(3R)-1-(3-chlorobenzoyl)pyrrolidin-3-yl]oxy}phenyl)-1-(pyridazin-4-yl)azetidine-3-carboxamide] |
| 64.6 nM | CC(C)(C)C(=O)N1CCC(Oc2ccc(NC(=O)C3CN(c4cccnc4)C3)cc2)CC1 [Example 42, N-(4-{[1-(2,2-dimethylpropanoyl)piperidin-4-yl]oxy}phenyl)-1-(pyridin-3-yl)azetidine-3-carboxamide] |
| 2.73 nM | CCC(C)CC(=O)N1CCC(c2ccc(NC(=O)[C@H]3CCN(c4cccnn4)C3)cc2)CC1 (stereo partly drawn) [Example 682, (3S)-N-{4-[1-(3-methylpentanoyl)piperidin-4-yl]phenyl}-1-(pyridazin-3-yl)pyrrolidine-3-carboxamide] |

| IC50 | Structure (SMILES) |
| --- | --- |
| 2.02 nM | O=C(Nc1ccc(C2CCN(C(=O)c3ccsc3)CC2)cc1)C1CN(c2ccnnc2)C1 [Example 530, 1-(pyridazin-4-yl)-N-{4-[1-(thiophen-3-ylcarbonyl)piperidin-4-yl]phenyl}azetidine-3-carboxamide] |
| 3.52 nM | O=C(Nc1ccc(OC2CCN(C(=O)c3cccs3)CC2)cc1)C1CN(c2cccnc2)C1 [Example 61, 1-(pyridin-3-yl)-N-(4-{[1-(thiophen-2-ylcarbonyl)piperidin-4-yl]oxy}phenyl)azetidine-3-carboxamide] |
| 658 nM | Cc1ccc(N2CC[C@H](C(=O)Nc3ccc(OC4CCN(C(=O)c5ccccc5F)CC4)cc3)C2)nn1 [Example 836, (3S)—N-(4-{[1-(2-fluorobenzoyl)piperidin-4-yl]oxy}phenyl)-1-(6-methylpyridazin-3-yl)pyrrolidine-3-carboxamide] |
| 620 nM | O=C(Nc1ccc(S(=O)(=O)C2CCN(C(=O)C3CC3)CC2)cc1)C1CN(c2cccnn2)C1 [Example 592, N-(4-{[1-(cyclopropylcarbonyl)piperidin-4-yl]sulfonyl}phenyl)-1-(pyridazin-3-yl)azetidine-3-carboxamide] |
| 58.6 nM | O=C(Nc1ccc(OC2CCN(C(=O)c3cccs3)CC2)cc1)C1CN(c2ccnnc2)C1 [Example 303, 1-(pyridazin-4-yl)-N-(4-{[1-(thiophen-2-ylcarbonyl)piperidin-4-yl]oxy}phenyl)azetidine-3-carboxamide] |
| 83.2 nM | CC(C)C(=O)N1CCC(Oc2ccc(NC(=O)C3CN(c4ccnnc4)C3)cc2)CC1 [Example 294, N-(4-{[1-(2-methylpropanoyl)piperidin-4-yl]oxy}phenyl)-1-(pyridazin-4-yl)azetidine-3-carboxamide] |
| 903 nM | O=C(Nc1ccc(O[C@@H]2CCN(C(=O)Cc3ccc(OC(F)(F)F)cc3)C2)cc1)C1CN(c2ccnnc2)C1 [Example 447, 1-(pyridazin-4-yl)-N-(4-{[(3R)-1-{[4-(trifluoromethoxy)phenyl]acetyl}pyrrolidin-3-yl]oxy}phenyl)azetidine-3-carboxamide] |
| 7.84 nM | O=C(Nc1ccc(C2CCN(C(=O)c3cc(Cl)cc(Cl)c3)CC2)cc1)C1CN(c2cccnn2)C1 [Example 365, N-{4-[1-(3,5-dichlorobenzoyl)piperidin-4-yl]phenyl}-1-(pyridazin-3-yl)azetidine-3-carboxamide] |
| 10.3 nM | O=C(Nc1ccc(C2CCN(C(=O)Cc3ccccc3F)CC2)cc1)[C@H]1CCN(c2cccnn2)C1 [Example 710, (3S)-N-(4-{1-[(2-fluorophenyl)acetyl]piperidin-4-yl}phenyl)-1-(pyridazin-3-yl)pyrrolidine-3-carboxamide] |
| 1.42 nM | O=C(Nc1ccc(C2CCN(C(=O)c3cscn3)CC2)cc1)C1CN(c2cccnn2)C1 [Example 430, 1-(pyridazin-3-yl)-N-{4-[1-(1,3-thiazol-4-ylcarbonyl)piperidin-4-yl]phenyl}azetidine-3-carboxamide] |
| 1.84 nM | O=C(Nc1ccc(C2CCN(C(=O)[C@@H]3CCCO3)CC2)cc1)C1CN(c2cccnc2)C1 [Example 10, 1-(pyridin-3-yl)-N-(4-{1-[(2S)-tetrahydrofuran-2-ylcarbonyl]piperidin-4-yl}phenyl)azetidine-3-carboxamide] |
| 5220 nM | O=C(Nc1ccc(C2CCN(C(=O)c3ccccc3)CC2)cc1)C1CCN(c2cccnn2)CC1 [Example 626, N-[4-(1-benzoylpiperidin-4-yl)phenyl]-1-(pyridazin-3-yl)piperidine-4-carboxamide] |
| 1.8 nM | CCC(=O)N1CCC(c2ccc(NC(=O)C3CN(c4cccnn4)C3)cc2)CC1 [Example 440, N-[4-(1-propanoylpiperidin-4-yl)phenyl]-1-(pyridazin-3-yl)azetidine-3-carboxamide] |
| 0.5 nM | O=C(Nc1ccc(C2CCN(C(=O)c3cccs3)CC2)cc1)[C@H]1CCN(c2cccnn2)C1 [Example 731, (3S)-1-(pyridazin-3-yl)-N-{4-[1-(thiophen-2-ylcarbonyl)piperidin-4-yl]phenyl}pyrrolidine-3-carboxamide] |
| 677 nM | CCOCC(=O)N1CCC(c2ccc(NC(=O)C3CN(c4cccnc4C)C3)cc2)CC1 [Example 191, N-{4-[1-(ethoxyacetyl)piperidin-4-yl]phenyl}-1-(2-methylpyridin-3-yl)azetidine-3-carboxamide] |
| 68.9 nM | COCC(=O)N1CCC(c2ccc(NC(=O)[C@H]3CCN(c4cccnn4)C3)cc2)CC1 [Example 735, (3S)-N-{4-[1-(methoxyacetyl)piperidin-4-yl]phenyl}-1-(pyridazin-3-yl)pyrrolidine-3-carboxamide] |
| 65.7 nM | CC(C)CN1CCC(c2ccc(NC(=O)C3CN(c4cccnc4)C3)cc2)CC1 [Example 94, N-{4-[1-(2-methylpropyl)piperidin-4-yl]phenyl}-1-(pyridin-3-yl)azetidine-3-carboxamide] |
